According to paper PMC11630551, “In silico screening of protein-binding peptides with an application to developing peptide inhibitors against antibiotic resistance” (PNAS Nexus, 2024):
Entries after “also recorded” stand apart in the source; their conditions may differ.

Target: T1, TEM-1 β-lactamase (Escherichia coli, UniProt P62593)
T1 construct: host or cells: E. coli BL21 (DE3)
Assay: not given
Format: biochemical
Details: not given

T1 sequence (P62593 24-286 limits assumed): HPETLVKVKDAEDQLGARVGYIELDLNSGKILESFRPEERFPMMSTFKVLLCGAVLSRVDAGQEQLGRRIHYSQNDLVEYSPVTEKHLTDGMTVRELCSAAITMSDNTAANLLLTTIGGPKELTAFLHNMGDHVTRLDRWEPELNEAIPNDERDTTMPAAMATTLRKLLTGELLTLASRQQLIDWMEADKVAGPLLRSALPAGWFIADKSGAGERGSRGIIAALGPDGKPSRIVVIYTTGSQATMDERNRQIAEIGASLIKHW

Sequence | change of β-lactamase activity of TEM-1 at peptide screening concentration
AKYFEQASYG [TF6] | increased the β-lactamase activity; also recorded: did not exhibit significant inhibition
EYGDAWHDAG [TF4] | did not exhibit significant inhibition
RDSVGAASVN [TF9] | did not exhibit significant inhibition
ARDATCRRWG [TF3] | increased the β-lactamase activity; also recorded: did not exhibit significant inhibition
ASRAEVDAAAKGAA [TF8] | did not exhibit significant inhibition

System: not listed separately
Assay: Solubility of synthesized peptides
Details: excluded from assay experiments

Sequence | solubility
ESYHGMLACVIAG [TF10] | poor solubility
